From patent publication US10386375B2, “Methods and systems for the diagnosis and treatment of androgen disorders” (Function Promoting Therapies LLC, priority 2013, dated 2019)

Columns and labels:
[1] = Percent free testosterone calculated in serum samples from the TED trial; assay type: in vitro ADME, men
Description: Assessment of FT Concentrations in Clinical Trials. FT determined using the dynamic model developed in this study (cFTZBJ) and Vermeulen's equation (cFTV) (as implemented by Mazer, (Mazer 2009)) were compared with those measured using equilibrium dialysis in samples derived from randomized testosterone trials in men (Spitzer et al 2012) and women (Huang et al 2012). These samples had been collected in fasting state in the morning, stored at −80° C., and never thawed.
At baseline and after 12-weeks of testosterone or placebo administration, total testosterone concentrations were measured using LC-MS/MS and SHBG concentrations using a two-site immunofluorometric assay (DELFIA®, Perkin-Elmer, Waltham, Mass.) (21). FT was measured in the same samples by equilibrium dialysis(Bhasin et al 2012).
Application of new Multi-step Dynamic Binding Model with Complex Allostery to Clinical Trials Data. SHBG and albumin are predominantly the two proteins that bind testosterone with significant affinity; the binding affinities of transcortin and orosomucoid for testosterone are extremely low. […]

[2] = molecular target: T1, SHBG (Homo sapiens, UniProt P04278); conditions: Model A, Vermeulen's model: equal affinity for each monomer in SHBG dimer; fixed model value; cited from earlier work
T1 sequence (P04278 30-402): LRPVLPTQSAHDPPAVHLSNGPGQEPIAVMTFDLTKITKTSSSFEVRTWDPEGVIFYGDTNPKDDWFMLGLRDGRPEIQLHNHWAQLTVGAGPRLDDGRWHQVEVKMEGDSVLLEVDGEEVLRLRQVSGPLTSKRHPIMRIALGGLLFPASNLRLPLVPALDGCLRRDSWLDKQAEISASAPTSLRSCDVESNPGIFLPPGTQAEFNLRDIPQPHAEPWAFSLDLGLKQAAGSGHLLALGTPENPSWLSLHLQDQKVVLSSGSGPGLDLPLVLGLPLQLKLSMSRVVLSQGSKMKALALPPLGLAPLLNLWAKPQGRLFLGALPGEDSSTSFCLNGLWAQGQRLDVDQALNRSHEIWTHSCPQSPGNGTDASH

SMILES: C[C@]12CC[C@H]3[C@@H](CCC4=CC(=O)CC[C@@]43C)[C@@H]1CC[C@@H]2O [testosterone, 17-β-hydroxyandrost-4-en-3-one]
- fraction of circulating testosterone which is free ([1]; calculated with the new dynamic model (cFTZBJ), clinical trial samples): 2.9±0.4%
- % cFTV ([1]; percent free testosterone calculated with Vermeulen's equation, as generally assumed): 1.5±0.4%
- Kd [2]: 1 nM
